Assay results from patent US20250042918A1, “COMPOUNDS” (Fundación Del Sector Públlco Estatal Centro Nacional De …, priority 2021, published 2025).

Assays:
[1] = target: T1, PIM-1 (Homo sapiens, UniProt P11309); experiment: Protein PIM kinase assay (ADP Hunter Plus); format: biochemical; conditions: 100 μM ATP, 100 μM PIMtide
T1 construct: made in house
Protocol: (§1) PIM kinase activities were measured by using the commercial ADP Hunter™ Plus assay (DiscoveRx Ref. #33-016), a homogeneous assay measuring ADP accumulation, as a universal product of kinase activity. PIM-1 and PIM-2 proteins were obtained by purification as it is described by Martinez-Gonzalez et. al. Eur. J. Med Chem. 2019, 168, 87-109 and PIM-3 was acquired from Millipore (Cat #14-738). The assay was done following general manufacturer recommendations and adapting protein and substrates concentrations to optimal conditions. Kinase buffer was 15 mM HEPES, pH 7.4, 20 mM NaCl, 1 mM EGTA, 0.02% Tween-20, 10 mM MgCl2 and 0.1 mg/mL LBGG (bovine y-globulin). All PIM kinases assays were done at 100 μM PIM tide (ARKRRRHPSGPPTA), as peptide substrate, and 100 μM ATP. Protein concentration was 50, 350 and 200 pg/μl for PIM-1, 2 and 3, respectively. In order to calculate the IC50 of described compounds, serial 1:3 dilutions were prepared and the reaction started by addition of ATP. Incubation was done for 1 h at 25° C. Reagents A and B (DiscoveRx) were sequentially added to the wells and plates were incubated for 30 min at 37° C. Fluorescence counts were read in a Victor instrument (Perkin Elmer) with the recommended settings (544 and 580 nm as excitation and emission wavelengths, respectively). Values were plot against inhibitor concentration and fit to a sigmoid dose-response curve using Activity Base software from IDBS.

[2] = target: T2, PIM-2 (Homo sapiens, UniProt Q9P1W9); experiment: Protein PIM kinase assay (ADP Hunter Plus); format: biochemical; conditions: 100 μM ATP, 100 μM PIMtide
T2 construct: made in house
Protocol: as §1

[3] = target: T3, PIM-3 (Homo sapiens, UniProt Q86V86); experiment: Protein PIM kinase assay (ADP Hunter Plus); format: biochemical; conditions: 100 μM ATP, 100 μM PIMtide
T3 construct: purchased Millipore 14-738
Protocol: as §1

[4] = system: BAD S112 phosphorylation in H1299 cells overexpressing PIM-1 (H1299Pim1); experiment: BAD S112 phosphorylation inhibition assay (in Cell ELISA); format: cell-based; conditions: Homo sapiens, NCI-H1299, 4 hours, medium without FBS, read-out: BAD PH 1299PIM 1 ELIWO
Protocol: The efficacy of the compounds of the invention on the inhibition of BAD phosphorylation was measured by an in Cell ELISA.
Materials: H1299 cells overexpressing PIM-1 (H1299Pim1). DMSO Plates: 96-well-Polystyrene, Untreated, Round-Bottom plates from Costar (Cat #3797). Cell Plates: 96-Flat bottom biocoated with Poly-D-Lysin plates with lid from Becton Dickinson (Cat #354651). Cell Culture Medium: DMEM high glucose, 10% Fetal Bovine Serum, 2 mM L-Glutamine, P/S. Antibodies: phospho BAD S112 antibody from Cell Signaling (cat. #9291S), anti-rabbit conjugated with peroxidase from Amersham (cat. #3619). Reagent: SuperSignal ELISA femto from Pierce (cat. #1001110).
Procedure: Cells were seeded in 15000 cells per 200 μl per well into 96-well plates and incubated for 16 h at 37° C., 5% CO2. On day two, nine serial 1:2 compound dilutions were made in DMSO in a 96-well plate. The compounds were added to duplicate wells in 96-well cell plates using a FX BECKMAN robot (Beckman Coulter) and were incubated at 37° C. under CO2 atmosphere in medium without fetal bovine serum (FBS). After 4 hours, relative levels of BAD S112 phosphorylation were measured in Cell ELISA using SuperSignal ELISA Femto substrate (Pierce) and read on VICTOR (Perkin Elmer). EC50 values were calculated using ActivityBase from IDBS.

[5] = system: Naïve CD4+ T cells, Th17 cells; experiment: CD4+ T cell differentiation under Th17 conditions (IL-17A, ELISA and FACS); format: cell-based, mice
Protocol: (§2) Naïve CD4^+ T cells were purified from mice spleens and lymph nodes using positive selection by magnetic beads (CD4 L3T4 Kit, Miltenyi Biotec, UK). The purified T cells were activated by plate-bound αCD3ε (1 μg/ml; 2C11) and αCD28 (3 μg/ml; 37.51) in the presence or absence of the compound of Example 1 or Cyclosporin A (Sigma Aldrich), and cultured for 72 hrs under Th1 conditions (IL-12 [20 ng/ml]+αIL-4 (11B1) [10 μg/ml]), 72 hrs under Th17 conditions (αIFNγ [10 μg/ml]+αIL-4 [5 μg/ml]+IL-6 [[…]]+TGFβ(5 ng/ml)), and 96 hrs under iTreg conditions (TGFβ (5 ng/ml)) at 37° C.
ELISA kits for mouse IFNγ and IL-17a were purchased from eBioscience (Thermo Fisher, UK) and performed in accordance to manufacturer's instructions using Corning® High Binding ELISA plates (Merck, CLS9018). All ELISAs were analysed using a Synergy MX microplate reader (BioTek).
Intracellular protein expression was evaluated by first restimulating the cells with phorbol-12-myristate 13-acetate (PMA)(10 ng/ml) (Sigma Aldrich), ionomycin (1 μg/ml) (Sigma Aldrich) and Brefeldin A (5 μg/ml) (eBioscience) for 4-6 hours at 37° C. […] Fc block (93) and all fluorescence dye labelled antibodies used αCD4 (GK1.5), αIFNγ (XMG1.2), αIL-17a (17B7), αFOXP3 (NRRF-30; FJK-16S) were purchased from eBiosciences (Thermo Fisher, UK). […]

[6] = system: Naïve CD4+ T cells, iTreg cells; experiment: CD4+ T cell differentiation under iTreg conditions (FoxP3, FACS); format: cell-based, mice; conditions: 12.5 nM
Protocol: as §2
Intracellular protein expression was evaluated by first restimulating the cells with phorbol-12-myristate 13-acetate (PMA)(10 ng/ml) (Sigma Aldrich), ionomycin (1 μg/ml) (Sigma Aldrich) and Brefeldin A (5 μg/ml) (eBioscience) for 4-6 hours at 37° C. […] Fc block (93) and all fluorescence dye labelled antibodies used αCD4 (GK1.5), αIFNγ (XMG1.2), αIL-17a (17B7), αFOXP3 (NRRF-30; FJK-16S) were purchased from eBiosciences (Thermo Fisher, UK). Multi-parameter analysis was performed on an LSR/Fortessa (Becton Dickinson Biosciences (BD)) and analysed using FlowJo software (Tree Star).

T2 sequence (Q9P1W9 whole entry): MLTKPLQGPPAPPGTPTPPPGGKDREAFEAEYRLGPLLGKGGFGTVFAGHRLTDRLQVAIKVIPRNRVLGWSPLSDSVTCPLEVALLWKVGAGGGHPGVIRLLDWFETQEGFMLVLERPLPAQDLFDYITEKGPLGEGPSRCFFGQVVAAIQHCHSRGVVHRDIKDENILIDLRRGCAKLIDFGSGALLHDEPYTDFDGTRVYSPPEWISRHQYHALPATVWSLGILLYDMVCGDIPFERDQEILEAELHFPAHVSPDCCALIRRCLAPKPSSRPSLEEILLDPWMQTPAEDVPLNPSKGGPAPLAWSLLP
T1 sequence (P11309 whole entry): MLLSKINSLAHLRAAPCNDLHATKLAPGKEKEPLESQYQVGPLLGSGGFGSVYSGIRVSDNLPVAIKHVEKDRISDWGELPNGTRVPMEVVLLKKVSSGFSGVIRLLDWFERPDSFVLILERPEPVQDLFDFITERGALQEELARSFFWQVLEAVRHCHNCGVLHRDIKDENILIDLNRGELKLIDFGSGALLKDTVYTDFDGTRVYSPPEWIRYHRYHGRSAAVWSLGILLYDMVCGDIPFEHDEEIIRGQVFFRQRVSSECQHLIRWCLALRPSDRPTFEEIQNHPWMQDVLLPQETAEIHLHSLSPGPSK

In the case of `CN1CCOc2c1c(N[C@H]1CC[C@@](C)(O)CC1)nn1c(-c3cccc(OC(F)(F)F)c3)nnc21` [Example 1, 1-Methyl-4-[6-methyl-3-(3-trifluoromethoxy-phenyl)-7,8-dihydro-6H-9-oxa-1,2,3a,4,6-pentaaza-cyclopenta[a]naphthalen-5-ylamino]-cyclohexanol], the IC50 [1] is reported as 1 to 5 nM, the IC50 [2] is reported as 5 to 10 nM and the IC50 [3] is reported as 5 to 10 nM. The EC50 [4] was 8.3 nM, the “pro-inflammatory Th17 responses” value ([5]; 12.5 nM, 72 hrs Th17 conditions) was “significant suppression” and the “Differentiation of Th17 cells in vitro as determined by the secretion of IL-17A” value ([5]; at a range of concentrations, ELISA and FACS) was “inhibited”. The “generation of immunoregulatory iTreg cells” value [6] was “enhancing the generation” and the “expression of the transcription factor FoxP3” value ([6]; 96 hrs iTreg conditions, FACS) was “significantly increased expression”.
